# Assay results published in PMC12339982 (Nature Communications, 2025).
# Changes are numbered by the printed parent chain.
# Experiments:
# [1] = target: T1, human wild type TauT (TauT^WT) (Homo sapiens, UniProt P31641); assay: [3H]taurine uptake inhibition assay in HEK293T cells overexpressing TauT^WT; format: cell-based; conditions: result in words
# T1 sequence (P31641 1-620): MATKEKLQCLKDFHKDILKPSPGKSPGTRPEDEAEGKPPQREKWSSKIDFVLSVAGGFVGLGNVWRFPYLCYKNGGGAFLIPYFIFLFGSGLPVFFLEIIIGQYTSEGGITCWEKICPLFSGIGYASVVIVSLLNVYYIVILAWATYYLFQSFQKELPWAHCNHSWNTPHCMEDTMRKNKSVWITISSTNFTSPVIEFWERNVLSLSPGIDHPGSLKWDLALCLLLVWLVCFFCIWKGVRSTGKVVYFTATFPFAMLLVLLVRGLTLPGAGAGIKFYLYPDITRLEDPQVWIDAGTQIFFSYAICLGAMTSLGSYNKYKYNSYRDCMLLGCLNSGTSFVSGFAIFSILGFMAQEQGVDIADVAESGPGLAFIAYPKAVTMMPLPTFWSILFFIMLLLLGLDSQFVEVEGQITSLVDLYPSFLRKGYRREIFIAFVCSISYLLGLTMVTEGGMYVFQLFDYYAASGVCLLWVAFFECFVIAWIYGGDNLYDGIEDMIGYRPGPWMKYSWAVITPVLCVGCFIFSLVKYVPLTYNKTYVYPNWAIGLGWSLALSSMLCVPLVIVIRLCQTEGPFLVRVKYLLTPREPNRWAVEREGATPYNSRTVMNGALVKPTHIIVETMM
# TauT Y138A mutant = target: T2, TauT Y138A mutant (Homo sapiens, UniProt P31641, Y138A); assay: MST binding, TauT Y138A; conditions: mean ± s.e.m., n=3
# T2 sequence (P31641 1-620 Y138A): T1 sequence (P31641 1-620) with Y138A
# TauT F300A mutant = target: T3, TauT F300A mutant (Homo sapiens, UniProt P31641, F300A); assay: MST binding, TauT F300A; conditions: mean ± s.e.m., n=3
# T3 sequence (P31641 1-620 F300A): T1 sequence (P31641 1-620) with F300A
# TauT E406A mutant = target: T4, TauT E406A mutant (Homo sapiens, UniProt P31641, E406A); assay: MST binding, TauT E406A; conditions: mean ± s.e.m., n=3
# T4 sequence (P31641 1-620 E406A): T1 sequence (P31641 1-620) with E406A
structure (smiles),measurement,setting,value
"[H]/N=C(/N)NCC(=O)O [GAA, guanidinoacetate]",inhibition of the uptake activity of TauT,[1],potent inhibitory effects
same,Kd (MST),TauT Y138A mutant,drastic loss of GAA binding affinity
same,Kd (MST),TauT F300A mutant,drastic loss of GAA binding affinity
same,Kd (MST),TauT E406A mutant,only marginally weakened the binding affinity
"NCCCC(=O)O [GABA, γ-aminobutyric acid]",inhibition of the uptake activity of TauT,[1],potent inhibitory effects
same,Kd (MST),TauT Y138A mutant,complete loss of the binding
same,Kd (MST),TauT F300A mutant,complete loss of the binding
same,Kd (MST),TauT E406A mutant,reduces the binding affinity of GABA slightly
"NCCS(=O)(=O)O [Taurine, taurine]",Kd (MST),TauT Y138A mutant,undetectable binding
same,Kd (MST),TauT F300A mutant,reduced the taurine binding to varying extents
same,Kd (MST),TauT E406A mutant,reduced the taurine binding to varying extents
